Reference: PMC8452301 (CPT: Pharmacometrics & Systems Pharmacology, 2021)
Like-named read-outs stand apart in the source and are kept apart here.

Key:
[1] = format: in vivo, human; details: observed
[2] = Physicochemical input parameters; details: high solubility–high permeability
[3] = cited from earlier work
[4] = cited from earlier work; remark: listed apart in the source
[5] = cited from earlier work; remark: listed apart in the source
[6] = 4-mg single dose, geometric mean, observed N=7
[7] = 4-mg single dose, mean, observed N=7
[8] = 4-mg single dose, median, observed N=7
[9] = 4-mg, q.d. dosing, geometric mean, observed N=5
[10] = 4-mg, q.d. dosing, mean, observed N=5
[11] = 9-mg q.d. dosing, geometric mean, observed N=6
[12] = 9-mg q.d. dosing, mean, observed N=6
[13] = 9-mg q.d. dosing, median, observed N=6
[14] = 9-mg single dose, geometric mean, observed N=9
[15] = 9-mg single dose, mean, observed N=9
[16] = 9-mg single dose, median, observed N=9
[17] = 4-mg single dose, no inhibitor, Cohort A n=17, mean
[18] = 4-mg with 200-mg q.d. itraconazole, Cohort C, geometric mean
[19] = 4-mg with 200-mg q.d. itraconazole, Cohort C, mean
[20] = 4-mg with 400-mg q.d. fluconazole, Cohort B, geometric mean
[21] = 4-mg with 400-mg q.d. fluconazole, Cohort B, mean

Question: For `COc1cc(OC)cc(N(CCNC(C)C)c2ccc3ncc(-c4cnn(C)c4)nc3c2)c1` [erdafitinib], which “difference in total exposure, patients with cancer versus healthy subjects” value [1] is on record?
Answer: ~ 1.4 fold

Question: And the “Biopharmaceutics Classification System class” value [2]?
Answer: Class 1

Question: What about the “AUC0–72” value [3, 6] of the same compound?
Answer: 6022 ng·h/mL

Question: And the Cmax [3, 6]?
Answer: 163 ng/mL

Question: And the “AUC0–72” value [3, 7]?
Answer: 6743 ng·h/mL

Question: What about the Cmax [3, 7] of the same compound?
Answer: 182 ng/mL

Question: And the “AUC0–72” value [3, 8]?
Answer: 6360 ng·h/mL

Question: And the Cmax [3, 8]?
Answer: 173 ng/mL

Question: And the AUCtau [3, 9]?
Answer: 12,064 ng·h/ml

Question: What about the Cmax [3, 9] of the same compound?
Answer: 630 ng/mL

Question: What about the AUCtau [3, 10] of the same compound?
Answer: 13,516 ng·h/ml

Question: What about the Cmax [3, 10] of the same compound?
Answer: 675 ng/mL

Question: What about the Cmax ([3]; 4-mg, q.d. dosing, median, observed N=5) of the same compound?
Answer: 569 ng/mL

Question: And the AUCtau [3, 11]?
Answer: 36,608 ng·h/ml

Question: What about the Cmax [3, 11] of the same compound?
Answer: 1911 ng/mL

Question: And the AUCtau [3, 12]?
Answer: 39,587 ng·h/ml

Question: What about the Cmax [3, 12] of the same compound?
Answer: 2018 ng/mL

Question: What about the AUCtau [3, 13] of the same compound?
Answer: 30,594 ng·h/ml

Question: What about the Cmax [3, 13] of the same compound?
Answer: 1765 ng/mL

Question: What about the “AUC0–72” value [3, 14] of the same compound?
Answer: 15,091 ng·h/ml

Question: And the Cmax [3, 14]?
Answer: 390 ng/mL

Question: And the “AUC0–72” value [3, 15]?
Answer: 17,564 ng·h/ml

Question: And the Cmax [3, 15]?
Answer: 431 ng/mL

Question: What about the “AUC0–72” value [3, 16] of the same compound?
Answer: 16,053 ng·h/ml

Question: What about the Cmax [3, 16] of the same compound?
Answer: 389 ng/mL

Question: What about the “unchanged drug recovered in feces” value ([4]; over ~ 16 days) of the same compound?
Answer: 17%

Question: What about the “unchanged drug recovered in feces” value ([4]; within the first 3 days) of the same compound?
Answer: < 5 % of the dose

Question: And the AUCinf ([5]; 4-mg single dose, no inhibitor, Cohort A n=17, geometric mean)?
Answer: 8777 ng·h/mL

Question: And the AUCinf [5, 17]?
Answer: 9145 ng·h/mL

Question: What about the Cmax [5, 17] of the same compound?
Answer: 138 ng/mL

Question: What about the AUCinf [5, 18] of the same compound?
Answer: 11,785 ng·h/ml

Question: What about the Cmax [5, 18] of the same compound?
Answer: 140 ng/mL

Question: And the AUCinf [5, 19]?
Answer: 12,228 ng·h/ml

Question: What about the Cmax [5, 19] of the same compound?
Answer: 145 ng/mL

Question: What about the AUCinf [5, 20] of the same compound?
Answer: 13,060 ng·h/ml

Question: And the Cmax [5, 20]?
Answer: 162 ng/mL

Question: What about the AUCinf [5, 21] of the same compound?
Answer: 14,233 ng·h/ml

Question: What about the Cmax [5, 21] of the same compound?
Answer: 177 ng/mL
